Assay results published in patent US20130217655A1, “COMPOSITIONS FOR TREATING PSORIASIS OF THE SCALP” (Dermipsor Ltd., priority 2010, published 2013).

Assay: skin penetration of calcipotriol from the formulation
Settings: calcipotriol in the present formulation, topical

C=C1/C(=C\C=C2/CCC[C@]3(C)[C@@H]([C@H](C)/C=C/[C@@H](O)C4CC4)CC[C@@H]23)C[C@@H](O)C[C@@H]1O [Calcipotriol]
penetration of the skin: does not penetrate the skin
